Key:
[1] = system: EGFR phosphorylation; assay: p-EGFR immunoblot in serum-starved, re-fed primary myoblasts; assay type: cell-based, mouse; settings: 1 h
Method: Cell Culture and Co-Immunoprecipitation. Satellite cells were isolated from WT mice by fluorescence activated cell sorting and cultured as primary myoblasts on collagen-coated plates in primary myoblast growth media (Ham's F10 media (Gibco) with 20% FBS (Wisent), 1% penicillin-streptomycin (Gibco) and 5 ng/mL bFGF (Cedarlane)).
Immunoblotting. Proteins were separated on 10% SDS-PAGE and transferred to Immobilon-P PVDF membrane (EMD Millipore). Membranes were probed with primary antibodies, followed by light chain specific HRP-conjugated secondary antibodies at 1:5000 (Bio-Rad) and developed using Immobilon Western HRP substrate (EMD Millipore). Membranes were visualized using FluorChem HD2 (Alpha Innotech) or exposed to BIOMAX film (Eastman Kodak).

[2] = system: regenerating mdx TA muscles; assay: Cardiotoxin-induced injury of TA muscle in mdx mice, intramuscular treatment; assay type: in vivo, mouse
From the text: Previously, the inventors observed that dystrophin- or Dag1-deficient muscles generate reduced numbers of Pax7-expressing and Myog-expressing cells following CTX-injury.
PTP1b inhibitor was concurrently administered with cardiotoxin into mdx TA muscles and supplemented again 2 days after the injury (FIG. 13A). To assess the muscle stem cell function after injury and the regenerative capacity of the treated mdx muscles, the inventors examined the histology of the regenerating muscles 10 days post cardiotoxin injection. Whereas the control vehicle treated muscles still contained large areas of necrotic fibers (msIgG+), the muscles treated with PTP1b inhibitors were better regenerated as evidenced by the presence of 50% […] Myh3-expressing myofibers (FIG. 13B). […] These findings are consistent with PTP1b inhibition inducing an increase in EGFR signaling and accelerated de novo myofiber formation in regenerating mdx muscles (FIG. 14).
Electroporation and Cardiotoxin Injury. Intramuscular (i.m.) cardiotoxin injections (Latoxan, 50 μl of 10 μM solution in saline) were injected directly into the right TA muscle through the skin under general anesthesia. For pharmacological inhibition, Lapatinib ditosylate (1 mM in DMSO; Santa Cruz Biotechnology), the PTP1b inhibitor CAS 765317-72-4 (10 mM in DMSO; Santa Cruz Biotechnologies) was mixed into the cardiotoxin solution for a final concentration of 1 μM or 20 μM, respectively; equal dilution of DMSO was used as vehicle control. Supplemental injection of inhibitors (20 μL of 2.5 μM of Lapatibin or 50 μM of PTP1b inhibitor diluted in saline) was performed 2 days after cardiotoxin injection.
Muscle samples were embedded in OCT embedding compound and frozen in liquid nitrogen cooled isopentane and cryosectioned in 12-μm slices. Cross-sections were washed once with PBS and fixed in 2% PFA 10 min, permeabilized with 0.1% Triton X-100/0.15 M Glycine/PBS for 10 min and extensively washed with PBS. Samples were blocked using M.O.M. Blocking reagent (Vector) for 2 h followed by additional blocking in 5% NGS/2% BSA at 4° C. over night. Primary antibodies were applied in blocking at 4° C. over night. Samples were washed extensively in PBS and secondary antibodies were applied in PBS (Alexa Flour 546, 647) for 1 h at room temperature. Following PBS washes, cross-sections were counterstained with DAPI ([…]) for 10 min and mounted with Permaflour (Fisher).
Histological Analysis of Muscle Sections. For Fiber type analysis, non-fixed samples were washed with PBS and blocked in 10% normal goat serum (NGS) for 1 hr at room temperature. Primary antibodies were applied in 10% NGS for 2 h at room temperature. Sections were washed extensively with PBS and secondary antibodies were applied in PBS for 1 h at room temperature. Following PBS washes, sections were counterstained with DAPI for 10 min and mounted with Permaflour. Antibodies were as follows: mouse anti-MyH3 (clone F1.652, DSHB), mouse anti-MyH4 (clone BF-F3, DSHB).
For analysis of myofiber Feret's diameter, non-fixed samples were washed with PBS and stained with Wheat Germ Agglutinin Alexa 647 conjugate (Fisher) for 1 h at room temperature. Samples were washed once with PBS and counterstained with DAPI. Samples were washed with PBS and mounted with Permaflour. Images were taken immediately following staining. Minimum fiber Feret measurement was performed using the SMASH software in MATLAB 2015a as described in Smith, L. R., and Barton, E. R. (2014) SMASH—semi-automatic muscle analysis using segmentation of histology: a MATLAB application. Skelet. Muscle 4, 21, which is incorporated herein by reference. Samples with significant staining artifacts were excluded from automated analyses.

[3] = system: mdx satellite cells; assay: Myog-expressing / myogenic cells on mdx myofibers at 72 h; assay type: cell-based, mouse; settings: 72 h of mdx myofiber culture, FIG. 4D
Method: EDL fiber Culture and siRNA Transfection. […] Briefly, EDL were carefully dissected and incubated in DMEM with 2% L-glutamine, 4.5% glucose, and 110 mg/mL sodium pyruvate (Gibco) containing 0.2% collagenase I (Sigma) for 45 min. Myofibers were isolated using gentle trituration with a glass pipet. Myofibers were cultured for 36, 42, or 72 h in DMEM containing 20% FBS (Wisent), 1% chick embryo extract (MP Biomedicals), and 2.5 ng/ml bFGF (Cedarlane). For pharmacological inhibition, Lapatinib ditosylate (1 mM in DMSO; Santa
Cruz Biotechnology), PTP1b inhibitor CAS 765317-72-4 (10 mM in DMSO; Santa Cruz Biotechnologies) was added to the culture medium for a final concentration of 1 μM or 10 μM, respectively; equal dilution of DMSO was used as vehicle control.

[4] = system: phosphorylated EGFR (p-EGFR); assay: p-EGFR immunostaining of mdx EDL myofibers; assay type: cell-based, mouse; settings: 1 h with or without recombinant EGF 100 ng/mL, FIG. 3A
Method: Therefore, the inventors conclude that that EGFR signaling occurs normally in mdx satellite cells.
To assess the signaling status of EGFR in quiescent satellite cells, EDL muscles were fixed in 4% PFA immediately post-dissection. Myofiber bundles were teased from the fixed muscles by tweezers.
Immunostaining and Antibodies. EDL myofibers were fixed for 10 min in 2% PFA and washed with PBS. Fibers were blocked and permeablized in horse serum blocking buffer (5% horse serum, 1% BSA (Sigma), and 0.5% Triton X-100 (Sigma) in PBS) for 1 h at room temperature or at 4° C. over night. Primary antibodies were applied in blocking solution for 2 h at room temperature or at 4° C. over night. Samples were subsequently washed with PBS and stained with appropriate fluorescently labeled secondary antibodies (Alexa fluor 488, 546, or 647) for 1 h at room temperature. After washing with PBS, samples were mounted with Permafluor (Fisher).

[5] = system: satellite cells; assay: Mitotic orientation by p-Aurk centrosome staining, EDL myofibers 36 h; assay type: cell-based, mouse; settings: 36 h culture, recombinant EGF vs vehicle, FIGS. 2B and 2C
Method: The inventors cultured single EDL myofibers for 36 h and satellite cell centrosomes were detected by immunostaining for phosphorylated aurora kinase (p-Aurk).
Characterization of Satellite Cell Divisions. The orientation of mitotic spindles in satellite cells was measured as described in Dumont et al. (2015). Single myofibers were fixed after 36 h of in vitro culture, as described above. Satellite cells were identified by Pax7 expression in the nucleus, as detected by immunofluorescene. Pax7 staining becomes cytoplasmic in mitotic satellite cells after the dissociation of the nuclear envelope, but is still discernable. Mitotic satellite cells were identified by positive p-Aurk staining, which labels cells from pro-metaphase to cytokinesis. Mitotic satellite cells with p-Aurk staining patterns that were not observed in WT cells, including monopolar, multipolar (>2), and abscission defects were quantified as abnormal. Mitotic orientations were manually counted according to the angle between the mitotic spindle and the tangential plane of the satellite cell's attachment point to the myofiber.

| Compound | increase in EGFR phosphorylation (p-EGFR grey values) ([1]; growth media alone, FIGS. 12A and 12B) [%] | increase in EGFR phosphorylation (p-EGFR grey values) ([1]; in the presence of added recombinant EGF) [%] | fewer Myh3-expressing myofibers vs vehicle ([2]; PTP1b inhibitor with cardiotoxin and again 2 days after, 10 days post injection, FIG. 13B) [%] | increase in muscle mass compared to vehicle treated controls ([2]; PTP1b inhibitor, 10 days post cardiotoxin, FIG. 13C) [%] | numbers of satellite cells (Pax7+) ([2]; PTP1b inhibitor, 10 days post cardiotoxin, FIG. 13F) | increase on average in Feret's diameters of myofibers compared to control muscles ([2]; PTP1b inhibitor, 10 days post cardiotoxin, FIGS. 13D and E) [fold] | increase in total numbers of myogenic cells [3] | p-EGFR staining in mdx fibers [4] | increase in Pax7-expressing cells ([2]; 10 ng recombinant EGF IM at CTX injury and 2 d after, 10 days post injury, FIG. 5B) [%] | increase in the numbers of Myog-expressing cells ([2]; 10 ng recombinant EGF IM at CTX injury and 2 d after, 10 days post injury, FIG. 5C) [%] | Feret's diameter of regenerating myofibers ([2]; EGF-treated vs vehicle-injected controls, 10 days post injury) | increase in the proportion of mitotic cells aligned along the apicobasal axis [5] [%] |
| --- | --- | --- | --- | --- | --- | --- | --- | --- | --- | --- | --- | --- |
| CCc1oc2cc(S(=O)(=O)Nc3ccc(S(=O)(=O)Nc4nccs4)cc3)ccc2c1C(=O)c1cc(Br)c(O)c(Br)c1 [PTP1b inhibitor, 3-(3,5-dibromo-4-hydroxy-benzoyl)-2-ethyl-benzofuran-6-sulfonicacid-(4-(thiazol-2-ylsulfamyl)-phenyl)-amide, reference compound] | 80 | 20 | 50 | 14 | increased numbers of satellite cells | 2 |  |  |  |  |  |  |
| EGF: human recombinant EGF protein (Life Technologies), direct activator of the EGFR pathway |  |  |  |  |  |  | about 14% | P-EGFR was only observed in mdx fibers treated with EGF | 26 | 50 | an increase in Feret's diameter | 50 |

Reference: patent publication US20230114123A1, “METHOD OF STIMULATING ASYMMETRIC DIVISION OF SATELLITE STEM CELLS” (Ottawa Hospital Research Institute, priority 2017, published 2023)
